The results in this text go back to patent US20200108043A1, “COMPOUNDS AND COMPOSITIONS FOR EXTENDING LIFESPAN OF A SUBJECT” (YALE UNIVERSITY, priority 2017, published 2020).

The target in one test is T1, proteasome (Saccharomyces cerevisiae, UniProt P30656).
T1 construct: with 50 μg of total protein in 200 μL of lysis buffer; endogenous in cells; host or cells: S. cerevisiae BY4741 wild-type or ΔUBR2 cells, glass-bead lysate (total protein extract)
Nature of the test: Proteasome assay with fluorogenic substrate Suc-LLVY-AMC on yeast protein extracts. The format is biochemical. As for the experimental part:
For protein extraction, 50 mL of cells were grown for 18 hours to an OD600 of approximately 0.8, then transferred to a 50 mL conical tube and centrifuged at 4255×g for 5 minutes at room temperature. The supernatant was discarded, and the cells were re-suspended in 150 μL of cold lysis buffer (50 mM Tris-HCl, pH 7.5, 0.5 mM EDTA, 5 mM MgCl2, with complete ULTRA mini protease inhibitor tablets, EDTA free) and transferred to a 1.5 mL tube. A ¼ volume of 500-750 μm glass beads (Acros Organics 397641000) was added to each tube. For 10 rounds, the tubes were chilled in ice water for 1 minute, then vortexed at maximum speed for 30 seconds to physically rupture the cells, and returned to the ice water. Samples were then spun for 3 minutes at 2500×g and 4° C., and the supernatant was transferred to a fresh tube. The solution was further clarified by centrifugation at 8000×g for 10 minutes at 4° C., and the supernatant was transferred to a fresh tube. Protein concentration was measured using a Nanodrop measuring the absorbance of the sample at 280 nm.
The proteasome assay used was described in Kruegel, et al. PLoS Genet. 7, (2011). The assay was performed in a 96-well clear-bottom plate (Costar 3603) with 50 μg of total protein in 200 μL of lysis buffer. The fluorogenic proteasome substrate Suc-LLVY-AMC (Bachem 1-1395) was added to a final concentration of 100 μM. Fluorescence intensity with an excitation wavelength of 380 nm and an emission wavelength of 460 nm was recorded at 5-minute intervals using a Neo2 plate reader (BioTek) set to mix constantly and maintain 30° C. Negative control reactions were performed in the presence of 50 μM MG132 (Sigma 474787), a proteasome inhibitor.

Another test concerns S. cerevisiae. Type of test: cell-based. As for the experimental part:
To obtain the single-cell level data for the age and generation-durations of replicatively aging mother cells, data reported in Liu, P., et al., Cell Rep. 634-644 (2015) was re-analyzed. The data was collected in the same media condition (CSM 2% glucose) as reported elsewhere herein. Cells were grown for ˜24 hours in CSM 2% glucose prior to loading to the microfluidic device. Once cells were loaded, media was swapped to provide CSM 2% glucose control media (untreated), media containing DMSO as a vehicle control (American Bio AB00435), media containing 10 μM terreic acid (Sigma SML0480), media containing 10 μM mycophenolic acid (Sigma M5255), or media containing another compound at the indicated concentration. An automated microscope was used to track […], and replicative lifespan was later determined by counting the number of daughters produced before death. In the case of compound validation, only newborn cells were included in the lifespan experiment. To compare the replicative lifespan of labeled and unlabeled cells, only cells that were present within the traps at the start of the experiment were included. For these experiments, cells were loaded to the microfluidic device at an increased rate of 100 μL/min to increase the number of trapped mother cells. Green fluorescent images were also taken at the start of the experiment to confirm that the cells were visibly labeled.
Differences in lifespan characteristics were assessed through Log-Rank test using MATLAB with a cut-off value of P=0.05. The script for Log-Rank test was downloaded from MATLAB. Differences in proteasome activity were assessed using the unpaired, two-tailed, parametric t-test function of the GraphPad Prism software.
The Longevity Placement Test (LPT) was designed as a mutually exclusive, collectively exhaustive test to determine the relationship of a longevity intervention to a known genetic regulator of lifespan. For a given intervention that extends lifespan, any of three possible relationships may exist relative to a known genetic regulator of lifespan. (1) The intervention may act to extend lifespan independently from the known regulator. (2) The […] may act downstream from the known regulator, converging on a single component of the known regulator's lifespan pathway. (3) The intervention may act upstream from or upon the known regulator, ultimately modulating lifespan through the genetic regulator.
In Step 1 of the LPT, the longevity intervention is applied to a strain in which a genetic regulator of lifespan is deleted. In the event that lifespan extension from the longevity intervention is observed in this background, only possibilities (1) and (2) above remain valid (FIG. 7B). If no lifespan extension is observed, then possibilities (2) and (3) remain valid. Possibility (2) cannot be ruled out in this step, since non-saturating action by the genetic regulator could leave room for lifespan extension by the longevity intervention, while saturating action would preclude it.
In Step 2 of the LPT, an epistatic agent, which prevents lifespan extension from the longevity agent, is applied to a strain in which some upstream member of the genetic regulator's lifespan pathway has been modified to extend lifespan. This step differentiates possibility (2) from the remaining possibility after Step 1. In the event that lifespan extension from the genetic regulator's pathway is suppressed by the epistatic agent, this determines that possibility (2) is correct. In the event that no epistasis is observed, the remaining possibility, (1) or (3), is correct (FIG. 7C).

The subject of a further test is C. elegans. Nature of the test: Roundworm (C. elegans) lifespan extension. The settings on record: 10 μM in NGM plates, treated for duration of lifespan, vs control. Type of test: in vivo, Caenorhabditis elegans. As for the experimental part: Synchronized animals were obtained using the egg-laying method, allowing young […] eggs for 4 hours on bacteria-seeded plates. For each treatment group, 120 synchronized day-1 adults were used. All experiments were carried out at 20° C. Treatment groups were blinded. Nematode growth media (NGM) plates were made for each treatment group: Negative control (DMSO), Mycophenolic Acid (10 μM in DMSO), and Terreic Acid (10 μM in DMSO). The compounds were added to NGM media before pouring the plates. The plates were then dried overnight before moving them to 4° C. to prevent degradation of the compounds. Plates were seeded with 100 μL of 10× concentrated OP50 E. coli, and dried overnight at room temperature. Plates were UV treated with a UVP CL-1000 Ultraviolet Crosslinker, run twice on the energy setting ‘9999’ for about 5 minutes each run. Worms were transferred to new plates every 2-4 days. Viability was scored every day, with death determined by lack of response to a platinum wire. Missing worms, or those that died due to internal hatching were censored.

A further test has as its system Saccharomyces cerevisiae. Nature of the test: High-Life (High throughput replicative Lifespan measurement) flow cytometry assay in MEP yeast. Type of test: cell-based. The settings on record: 10 μM, 24 hours in culture, 3-4 replicate wells, repeat of screen hits. As for the experimental part: Cells were labeled with NHS-fluorescein as described above, then diluted to 20 cells/μL in media. 80 μL/well was aliquoted to 384-well plates, which were covered with a breathable membrane and placed on a shaker platform in a humidified incubator. After 3 hours, the plates were removed from the incubator and each well was treated with 20 μL pre-warmed, 30° C. 5 μM β-estradiol in media. In the case of ibuprofen or compound-treated wells, the compound was diluted in this volume at a 5× concentration to achieve a final concentration of 10 μM, or 100 μM for ibuprofen. The plates were then returned to the incubator. At indicated times, one plate was removed from the incubator and placed on an autosampler cooled to 8° C. attached to a Stratedigm flow cytometer. The cytometer was set to automatically add and mix 20 μL of aqueous solution containing 60 μg/mL CF405M-WGA (Biotium 29028) and propidium iodide (Sigma P4864) prior to acquiring 80 μL of sample for each well.
In order to test the lifespan of model organisms on both a large-scale and with quick turn-around, a massively multiplexed method was developed to measure replicative lifespan in the short-lived model organisms Saccharomyces cerevisiae. The protocol uses green-fluorescent labeling to identify progenitor cells, red-fluorescent labeling to differentiate non-viable cells, and blue-fluorescent labeling of bud scars to determine replicative age (FIG. 1). Each parameter is measured using a flow cytometer.
To achieve high throughput, the measurement system was automated, and the assay was performed in 384-well plates. The assay was performed using an autosampler-equipped flow cytometer, in a volume of 100 μL. Growth of even a single cell and its progeny in such a small volume will result in nutrient starvation before the natural replicative lifespan is exhausted; therefore to circumvent this issue, High-Life experiments were performed in the background of the Mother Enrichment Program (MEP) (Lindstrom and Gottschling, Genetics. 2009 October; 183(2):413-22). MEP strains express a CRE recombinase fused to an estrogen-binding domain for only a short time after birth. In the presence of β-estradiol, the recombinase translocates to the nucleus where it can excise two essential genes that have been modified to contain the exogenous LoxP sequence. Addition of β-estradiol to the media thus renders newborn daughters inviable without affecting existing mother cells, preventing exponential growth of the cell population and nutrient depletion (FIG. 2A).
The High-Life method was then tested to determine if it was suitable to screening for compounds that extend replicative lifespan. […] The effect of these compounds on High-Life readings was assayed after 24 hours in culture at 10 μM concentration. As a positive control, ibuprofen was used.
On the technique in general: A flow cytometer gives signals particle by particle.

Entries after “also recorded” stand apart in the source; their conditions may differ. Residues, ends and D or L forms follow the SMILES beside them. *: point of attachment. Cbz = O=C(OCc1ccccc1)*

As to `Nc1nc2nc[nH]c2c(=O)[nH]1` [guanine], the “proteasome activity in ΔUBR2 cells” value at proteasome (ΔUBR2 cells, presence vs absence of guanine) was “did not alter proteasome activity”. In addition, in the test on S. cerevisiae (SIR2 overexpression, guanine as epistatic agent), the “reversal of lifespan extension conferred by SIR2 overexpression (LPT step 2)” value is recorded as “did not reverse the lifespan extension”. The “suppression of lifespan extension in ΔHXK2 strain (LPT step 2)” value in the test on S. cerevisiae (ΔHXK2 strain, guanine as epistatic agent) is “did not suppress lifespan extension”. Further, the “suppression of lifespan extension in ΔTOR1 strain (LPT step 2)” value in the test with S. cerevisiae (ΔTOR1 strain, guanine as epistatic agent) is given as “did not suppress lifespan extension”. Moreover, the “suppression of lifespan extension from UBR2 deletion (LPT step 2)” value with S. cerevisiae (ΔUBR2 strain, guanine supplementation) is given as “partially suppressed lifespan extension”.

Consider `CC1=C(O)C(=O)[C@@H]2O[C@@H]2C1=O` [terreic acid], for which the “lifespan of C. elegans” value in the test with C. elegans was “measurable extension of lifespan; also recorded: statistically significant lifespan extension”. The “average High-Life readings (progenitor fraction viable vs CF405M intensity) relative to controls” value in the test with Saccharomyces cerevisiae is listed as “at least slightly above controls”. Besides, the “extension of mean RLS” value in the test on S. cerevisiae (10 μM compound, wild-type haploid cells, Replicator device) is given as 15%.

Consider `CC(C)C[C@@H](C=O)NC(=O)[C@H](CC(C)C)NC(=O)[C@H](CC(C)C)NC(=O)OCc1ccccc1` [MG-132] (Cbz-Leu-Leu-Leu-aldehyde), for which the “rate of fluorescence increase in proteasome assay (negative control)” value at proteasome (50 μM MG132) is recorded as “low rate of fluorescence increase”.
